Literature values in patent publication US5258406A, “Sulfonimidamides” (priority 1992, dated 1993).

Settings: Johnson et al., J. Org. Chem. 44, 2055 (1979); cited from earlier work

## CCCCNC(=O)NS(=N)(=O)c1ccc(C)cc1 (stereo not shown) [compound 16, N-butyl-N'-(p-toluenesulfonimidoyl)urea]
  activity in an antidiabetic screen: inactive
